Patent US4942154A, “Steroidal glycolipids as host resistance stimulators against viral infection” (priority 1987, dated 1990)

Columns and labels:
[1] = system: AIDS / AIDS-related complex (ARC); details: human, in vivo; cited from earlier work
[2] = in vivo; cited from earlier work
Pseudomonas aeruginosa = Pseudomonas aeruginosa in vivo protection study in cyclophosphamide-treated mice; set-up: species or system CF1 female mice; details: for LD50 Actual: PA, CY +
Protocol: (§1) Groups of 15-20 CF1 female mice (Charles River Breeding, Cambridge, Mass.) weighing 22-28 gm were injected intraperitoneally (i.p.) with cyclophosphamide (Cytoxan; CY) at 250 mg per kg body weight. One to two hours later they were typically injected again with the test material by the route specified. Four days later, the mice were divided into groups of five, each of which were injected i.p. with a different dilution of a suspension of Pseudomonas aeruginosa (Immunotype 1). The number of survivors was determined periodically and an estimate was made of the number of CFU of Pseudomonas organisms necessary to cause 50% lethality by the cumulative method of L. J. Reed and H. Muench (Am. J. Hygiene 27 (1938) 493-497). A protective index (P.I.) was defined as the LD50 for the mice receiving cyclophosphamide and the test compound divided by the LD50 for the mice receiving cyclophosphamide alone. All control mice were injected with aqueous vehicle in the same route and schedule as the test animals.
(§2) MATERIALS. All compounds for dosing were suspended in a sterile medium referred to as "aqueous vehicle" which contains 0.9% sodium chloride, 0.5% carboxymethyl cellulose, 0.4% Tween 80, and 0.9% benzyl alcohol unless otherwise stated. Test materials were evaluated via subcutaneous (s.c.), i.p., intramuscular (i.m.), orally (p.o.). and intravenous (i.v.) routes of administration. […]
(§3) INFECTION OF ANIMALS. All bacteria were inoculated i.p. to induce infection in the in vivo experiments. Candida albicans, however, was administrated i.v. Bacteria cultures were harvested in the log phase, washed with phosphate buffered saline (PBS, and resuspended in PBS containing 10% glycerol for freezing at -70° C. in 1 ml aliquots. The number of […] (cfu's) was determined before and after freezing. Frozen cultures were routinely thawed and diluted in sterile PBS just prior to inoculation. Viable cell counts were routinely done on thawed cultures the day of challenge to determine the number of cfu's. Candida albicans was stored in distilled water at room temperature. Viable cell counts were determined the day of testing.
(§4) The testing and results of 6-(5-cholesten-3β-yloxy)hexyl-1-thio-β-D-mannopyranoside (Example 2) against various organisms is shown in Table 2.

[3] = system: HIV reverse transcriptase; details: cited from earlier work
HIV = details: cited from earlier work
[4] = cited from earlier work; for adverse effects, toxicity, tolerability: clinical
[5] = system: AIDS-related Kaposi's sarcoma; details: cited from earlier work
[6] = system: Mycobacterium aviumintracellulare; details: AIDS patients; cited from earlier work
[7] = system: reverse transcriptase in several retroviruses; details: in vitro; cited from earlier work
Klebsiella pheumoniae = test: In vivo protection from Klebsiella infection in cyclophosphamide-treated mice; set-up: species or system CF1 female mice; details: KP; CY +; 40 mg/kg
Protocol: as §1, §2

[8] = system: Herpes Simplex Virus-1 (HSV1); test: Antiviral experiment in mice infected IP with Herpes Simplex Virus-1; type: in vivo, ICR mice; details: for Average Day of Death, Pre Treatment: HSV1 day 5; for Average Day of Death, Post Treatment: HSV1 prior to treatment
Protocol: An antiviral experiment was conducted to compare treatment with 6-(5-Cholesten-3β-yloxy)hexyl 1-thio-β-D-mannopyranoside (Example 2) in mice infected IP with Herpes Simplex Virus-1 (HSV1) immediately before (post treatment) or after 5 days of treatment (pretreatment).
Ten mice (ICR, 20 gm, mixed sexes) were pretreated by SC injection of a 0.1 mL suspension of test compound twice a day for 4 days. On day 5, the mice were injected IP with 0.5 mL solution of HSV1 (Schloser, 10-5). The post treatment group was infected with HSV1 prior to administration of test compound. Day of death from time of infection with HSV1 was recorded for each mouse and average day of death per treatment group was calculated.

Staphylococcus aureus = test: In vivo protection from Staphylococcus aureus infection in cyclophosphamide-treated mice; set-up: species or system CF1 female mice; details: SA, CY +
Protocol: as §1
MATERIALS. All compounds for dosing were suspended in a sterile medium referred to as "aqueous vehicle" which contains 0.9% sodium chloride, 0.5% carboxymethyl cellulose, 0.4% Tween 80, and 0.9% benzyl alcohol unless otherwise stated. Test materials were evaluated via subcutaneous (s.c.), i.p., intramuscular (i.m.), orally (p.o.). and intravenous (i.v.) routes of administration. The initial test dose was 40 mg per kg per mouse, with each active compound subsequently titrated below this level.
as §3, §4

Candida albicans = test: In vivo protection from Candida albicans infection in cyclophosphamide-treated mice; set-up: species or system CF1 female mice; details: CA, CY +
Protocol: as §1, §2
as §3, with “All bacteria were inoculated i.p. to induce infection in the in vivo experiments.” left out, “testing. […]” for “testing.”

Molecule: Cc1cn([C@H]2C[C@H](N=[N+]=[N-])[C@@H](CO)O2)c(=O)[nH]c1=O [Azidothymidine, 3'-azido-3'-deoxythymidine]
- clinical effect in AIDS / ARC patients [1]: First drug to show promise in prolonging lives of patients with AIDS or AIDS-related complex (ARC)
- central nervous system penetration [2]: effectively penetrates central nervous system

Molecule: NC(=O)c1ncn([C@@H]2O[C@H](CO)[C@@H](O)[C@H]2O)n1 [Ribavirin, 1-β-D-ribofuranosyl-1,2,4-triazole-3-carboxamide]
- clinical effect in AIDS / ARC patients [1]: inhibited viral replication and improved immune function in AIDS patients

Molecule: 6-(20S-Amino-pregn-5-en-3β-yloxy)hexyl 1-thio-β-D-mannopyranoside [Example 14]
- Protective Index (log) (Pseudomonas aeruginosa; Table 3, Pseudomonas aeruginosa, cyclophosphamide-treated mice, dose not given): 4.37 log

Molecule: CC(=O)Nc1ccc(C(=O)O)cc1.CC(=O)Nc1ccc(C(=O)O)cc1.CC(=O)Nc1ccc(C(=O)O)cc1.CC(O)CN(C)C.CC(O)CN(C)C.CC(O)CN(C)C.O=c1[nH]cnc2c1ncn2[C@@H]1O[C@H](CO)[C@@H](O)[C@H]1O [Inosine pranobex, p-Acetamidobenzoic acid salt of (1-dimethylamino-2-propanol:inosinate complex 3:3:1 molar ratio)]
- clinical effect in AIDS / ARC patients [1]: improve immune function in ARC patients

Molecule: Cc1ccc(C(=O)Nc2ccc(S(=O)(=O)O)c3cc(S(=O)(=O)O)cc(S(=O)(=O)O)c23)cc1NC(=O)c1cccc(NC(=O)Nc2cccc(C(=O)Nc3cc(C(=O)Nc4ccc(S(=O)(=O)O)c5cc(S(=O)(=O)O)cc(S(=O)(=O)O)c45)ccc3C)c2)c1 [Suramin]
- clinical effect in AIDS / ARC patients [1]: little or no evidence of clinical improvement or immunologic recovery
- HIV reverse transcriptase inhibition [3]: Potent inhibitor of HIV reverse transcriptase

Molecule: CC(C)(S)[C@@H](N)C(=O)O [D-Penicillamine, 3-mercapto-D-valine]
- clinical effect in AIDS / ARC patients [1]: suppressed the virus
- effect on HIV infectivity, growth or reproduction (HIV): Inhibits HIV reproduction in humans
- T cell levels ([4]; 13 AIDS patients with perpetually swollen glands): temporarily depressed T cell levels

Molecule: α-Interferon
- effect on HIV infectivity, growth or reproduction (HIV): Checks the growth of HIV in vitro
- tumor regression [5]: induced tumor regression in some AIDS-related Kaposi's sarcoma cases

Molecule: CO[C@H]1/C=C/O[C@@]2(C)Oc3c(C)c(O)c4c(c3C2=O)C2=NC3(CCN(CC(C)C)CC3)NC2=C(NC(=O)/C(C)=C\C=C\[C@H](C)[C@H](O)[C@@H](C)[C@@H](O)[C@@H](C)[C@H](OC(C)=O)[C@@H]1C)C4=O [Ansamycin, rifabutin]
- efficacy in opportunistic infection [6]: some efficacy

Molecule: ammonium 21-tungsto-9-antimoniate [HPA-23]
- clinical effect in AIDS / ARC patients [1]: no therapeutic benefit has been documented in AIDS patients
- effect on HIV infectivity, growth or reproduction (HIV): some tendency to check the growth of HIV
- reverse transcriptase inhibition in retroviruses [7]: Inhibits reverse transcriptase in several retroviruses in vitro

Molecule: O=C(O)P(=O)(O)O [Foscarnet, trisodium phosphonoformate]
- HIV reverse transcriptase inhibition [3]: Inhibits HIV reverse transcriptase activity in vitro at levels pharmacologically acceptable in vivo
- adverse effects, toxicity, tolerability [4]: serious side effects

Molecule: CC(C)(N1CC1C#N)N1CC1C(N)=O (stereo not shown) [Azimexon]
- clinical effect in AIDS / ARC patients [1]: improvements in symptoms and immune function in patients with ARC but not AIDS
- adverse effects, toxicity, tolerability [4]: only toxic effect was mild hemolysis

Molecule: CC(C)CCC[C@@H](C)[C@H]1CC[C@H]2[C@@H]3CC=C4C[C@@H](OCCCCCCS[C@@H]5O[C@H](CO)[C@@H](O)[C@H](O)[C@@H]5O)CC[C@]4(C)[C@H]3CC[C@]12C [Example 2, 6-(5-Cholesten-3β-yloxy)hexyl 1-thio-β-D-mannopyranoside]
- LD50 Actual (Klebsiella pheumoniae): 4.73 × 10^7 CFU
- P.I. (log) (Klebsiella pheumoniae): 1.12 log
- LD50 Actual (Pseudomonas aeruginosa; 10 mg/kg): 3.2 × 10^4 CFU
- LD50 Actual (Pseudomonas aeruginosa; 20 mg/kg): 3.2 × 10^5 CFU
- LD50 Actual (Pseudomonas aeruginosa; 40 mg/kg): 1.22 × 10^6 CFU
- LD50 Actual (Pseudomonas aeruginosa; 80 mg/kg): 2.59 × 10^6 CFU
- Average Day of Death, Pre Treatment ([8]; 0.8 mg/kg SC twice a day for 4 days, P 0.797): 8.6 days
- Average Day of Death, Post Treatment ([8]; 0.8 mg/kg SC twice a day): 9.1 days
- Average Day of Death, Pre Treatment ([8]; 3.1 mg/kg SC twice a day for 4 days, P 0.348): 7.1 days
- Average Day of Death, Post Treatment ([8]; 3.1 mg/kg SC twice a day): 6.3 days
- Average Day of Death, Pre Treatment ([8]; 12.5 mg/kg SC twice a day for 4 days, P 0.725): 8.0 days
- Average Day of Death, Post Treatment ([8]; 12.5 mg/kg SC twice a day): 7.5 days
- Average Day of Death, Pre Treatment ([8]; 50 mg/kg SC twice a day for 4 days, P 0.003): 11.0 days
- Average Day of Death, Post Treatment ([8]; 50 mg/kg SC twice a day): 6.4 days
- protection from fatal viral infection over placebo ([8]; 50 mg/kg twice a day for four days, by day of death): statistically enhanced protection from fatal viral infection over placebo treated animals
- protection, pretreated over post treatment group ([8]; pretreated mice versus post treatment group): statistically enhanced protection over the post treatment group
- LD50 Actual (Staphylococcus aureus; 5 mg/kg): 3.38 × 10^5 CFU
- LD50 Actual (Staphylococcus aureus; 10 mg/kg): 1.04 × 10^6 CFU
- LD50 Actual (Staphylococcus aureus; 20 mg/kg): 2.38 × 10^6 CFU
- LD50 Actual (Staphylococcus aureus; 40 mg/kg): 1.58 × 10^7 CFU
- LD50 Actual (Candida albicans; 10 mg/kg): 3.68 × 10^4 CFU
- LD50 Actual (Candida albicans; 20 mg/kg): 5.2 × 10^4 CFU
- LD50 Actual (Candida albicans; 40 mg/kg): 7.88 × 10^4 CFU
